Assay results published in patent US12678488B2, “Batch management method for improving farrowing rate or number of piglets born alive in swine” (priority 2024, dated 2026).
Marks after values point to notes of the source that are not given here.

System: Landrace x Large White reserve sows
Experiment: Heat detection: estrus rate and estrus time in gilts, different doses (Example 2)
Format: in vivo, pigs
Conditions: gilts
Description: Landrace x Large White reserve sows, about 230 days old, were randomly divided into a batch farrowing with FTAI and batch farrowing with FTAI combined with different doses of 1-[bis(4-cyanophenyl)methyl]-1,2,4-triazole groups, and during the experiment, the experimental sows in each group were fed regularly and gained free access to water according to the requirements of feeding management in the farm.
Referring to the dosage of 1-[bis(4-cyanophenyl)methyl]-1,2,4-triazole in clinical medicine and using standard weight-dosage conversion, the recommended dosage of 1-[bis(4-cyanophenyl)methyl]-1,2,4-triazole for sows was 50-150 μg/kg·BW/day, orally for consecutive 5 days, as derived by conversion. In addition, the applicant previously studied uniparous cows, and in the ovulation induction scheme, the reference dosage of 1-[bis(4-cyanophenyl)methyl]-1,2,4-triazole was 60-200 μg/kg·BW, administered in a single dose; furthermore, by means of conversion in conjunction with the dosage for model animals (mice) previously in the laboratory, various dosages were designed. The treatment methods of hormones and drugs for sows in each group were as follows: • batch farrowing with FTAI: the sows were fed with an altrenogest oral solution at 20 mg/animal at the same time every day, for 18 days; PMSG at 1000 IU/animal was injected intramuscularly 42 h after the last feeding with altrenogest, GnRH at 100 μg/animal was injected intramuscularly 80 h after the injection of PMSG, a first timed insemination was performed 24 h after the injection of GnRH, and a second timed insemination was performed 16 h after the first insemination.
Treatment group 1: the hormone treatment and mating schemes for gilts were the same as FTAI. The difference lay in that PMSG at 1000 IU/gilt was injected intramuscularly 42 h after the last feeding with altrenogest, and 1-[bis(4-cyanophenyl)methyl]-1,2,4-triazole at 12 μg/kg·BW/day was administered orally 8 h after the injection of PMSG, for 1 day.
Treatment group 2: the hormone treatment and mating schemes for gilts were the same as FTAI. The difference lay in that PMSG at 1000 IU/gilt was injected intramuscularly 42 h after the last feeding with altrenogest, and 1-[bis(4-cyanophenyl)methyl]-1,2,4-triazole at 12 μg/kg·BW/day was administered orally 8 h after the injection of PMSG, for 2 days.
Treatment group 3: the hormone treatment and mating schemes for gilts were the same as FTAI. The difference lay in that PMSG at 1000 IU/gilt was injected intramuscularly 42 h after the last feeding with altrenogest, and 1-[bis(4-cyanophenyl)methyl]-1,2,4-triazole at 20 μg/kg·BW/day was administered orally 8 h after the injection of PMSG, for 1 day.
Treatment group 4: the hormone treatment and mating schemes for sows were the same as FTAI. The difference lay in that PMSG at 1000 IU/gilt was injected intramuscularly 42 h after the last feeding with altrenogest, and 1-[bis (4-cyanophenyl)methyl]-1,2,4-triazole at 20 μg/kg·BW/day was administered orally 8 h after the injection of PMSG, for 2 days.
Treatment group 5: the hormone treatment and mating schemes for gilts were the same as FTAI. The difference lay in that PMSG at 1000 IU/animal was injected intramuscularly 42 h after the last feeding with altrenogest, and 1-[bis(4-cyanophenyl)methyl]-1,2,4-triazole at 20 μg/kg·BW/day was administered orally 8 h after the injection of PMSG, for 3 days.
Treatment group 6: the hormone treatment and mating schemes for gilts were the same as FTAI. The difference lay in that PMSG at 1000 IU/animal was injected intramuscularly 42 h after the last feeding with altrenogest, and 1-[bis(4-cyanophenyl)methyl]-1,2,4-triazole at 20 μg/kg·BW/day was administered orally 8 h after the injection of PMSG, for 5 days.
Treatment group 7: the hormone treatment and mating schemes for gilts were the same as FTAI. […]

[1] = Example 2 Treatment group 1: 12 μg/kg·BW/day orally, 1 day
[2] = Example 2 Treatment group 2: 12 μg/kg·BW/day orally, 2 days
[3] = Example 2 Treatment group 3: 20 μg/kg·BW/day orally, 1 day
[4] = Example 2 Treatment group 4: 20 μg/kg·BW/day orally, 2 days
[5] = Example 2 Treatment group 5: 20 μg/kg·BW/day orally, 3 days
[6] = Example 2 Treatment group 6: 20 μg/kg·BW/day orally, 5 days
[7] = Example 2 Treatment group 7: 40 μg/kg·BW/day orally, 1 day
[8] = Example 2 Treatment group 8: 40 μg/kg·BW/day orally, 5 days
[9] = Example 2 Treatment group 9: 80 μg/kg·BW/day orally, 5 days
[10] = Example 2 Treatment group 10: 160 μg/kg·BW/day orally, 5 days

N#Cc1ccc(C(c2ccc(C#N)cc2)n2cncn2)cc1 [1-[bis(4-cyanophenyl)methyl]-1,2,4-triazole]
Estrus number [1]: 27 | Estrus rate (%) [1]: 90.00^a % | Interval from stopping taking Altrenogest to estrus (days) [1]: 6.13 ± 0.12^b days | Estrus number [2]: 23 | Estrus rate (%) [2]: 85.19^a % | Interval from stopping taking Altrenogest to estrus (days) [2]: 6.07 ± 0.13^b days | Estrus number [3]: 22 | Estrus rate (%) [3]: 88.00^a % | Interval from stopping taking Altrenogest to estrus (days) [3]: 6.11 ± 0.12^b days | Estrus number [4]: 21 | Estrus rate (%) [4]: 84.00^a % | Interval from stopping taking Altrenogest to estrus (days) [4]: 6.07 ± 0.15^b days | Estrus number [5]: 24 | Estrus rate (%) [5]: 92.31^a % | Interval from stopping taking Altrenogest to estrus (days) [5]: 6.19 ± 0.16^b days | Estrus number [6]: 20 | Estrus rate (%) [6]: 76.92^b % | Interval from stopping taking Altrenogest to estrus (days) [6]: 6.70 ± 0.16^a days | Estrus number [7]: 22 | Estrus rate (%) [7]: 84.61^a % | Interval from stopping taking Altrenogest to estrus (days) [7]: 6.77 ± 0.14^a days | Estrus number [8]: 4 | Estrus rate (%) [8]: 16.67^b % | Interval from stopping taking Altrenogest to estrus (days) [8]: 6.25 ± 0.14^b days | Estrus number [9]: 0 | Estrus rate (%) [9]: 0.00^b % | Estrus number [10]: 0 | Estrus rate (%) [10]: 0.00^b % | Number of estrous animals at different times after stopping Altrenogest (day/animal) (day 4.5, Example 2 Treatment group 1: 12 μg/kg·BW/day orally, 1 day): 0 animal | Number of estrous animals at different times after stopping Altrenogest (day/animal) (day 4.5, Example 2 Treatment group 2: 12 μg/kg·BW/day orally, 2 days): 0 animal | Number of estrous animals at different times after stopping Altrenogest (day/animal) (day 4.5, Example 2 Treatment group 3: 20 μg/kg·BW/day orally, 1 day): 0 animal | Number of estrous animals at different times after stopping Altrenogest (day/animal) (day 4.5, Example 2 Treatment group 4: 20 μg/kg·BW/day orally, 2 days): 0 animal | Number of estrous animals at different times after stopping Altrenogest (day/animal) (day 4.5, Example 2 Treatment group 5: 20 μg/kg·BW/day orally, 3 days): 0 animal | Number of estrous animals at different times after stopping Altrenogest (day/animal) (day 4.5, Example 2 Treatment group 6: 20 μg/kg·BW/day orally, 5 days): 0 animal | Number of estrous animals at different times after stopping Altrenogest (day/animal) (day 4.5, Example 2 Treatment group 7: 40 μg/kg·BW/day orally, 1 day): 0 animal | Number of estrous animals at different times after stopping Altrenogest (day/animal) (day 4.5, Example 2 Treatment group 8: 40 μg/kg·BW/day orally, 5 days): 0 animal | Number of estrous animals at different times after stopping Altrenogest (day/animal) (day 5, Example 2 Treatment group 1: 12 μg/kg·BW/day orally, 1 day): 1 animal | Number of estrous animals at different times after stopping Altrenogest (day/animal) (day 5, Example 2 Treatment group 2: 12 μg/kg·BW/day orally, 2 days): 0 animal | Number of estrous animals at different times after stopping Altrenogest (day/animal) (day 5, Example 2 Treatment group 3: 20 μg/kg·BW/day orally, 1 day): 0 animal | Number of estrous animals at different times after stopping Altrenogest (day/animal) (day 5, Example 2 Treatment group 4: 20 μg/kg·BW/day orally, 2 days): 0 animal | Number of estrous animals at different times after stopping Altrenogest (day/animal) (day 5, Example 2 Treatment group 5: 20 μg/kg·BW/day orally, 3 days): 2 animal | Number of estrous animals at different times after stopping Altrenogest (day/animal) (day 5, Example 2 Treatment group 6: 20 μg/kg·BW/day orally, 5 days): 1 animal | Number of estrous animals at different times after stopping Altrenogest (day/animal) (day 5, Example 2 Treatment group 7: 40 μg/kg·BW/day orally, 1 day): 0 animal | Number of estrous animals at different times after stopping Altrenogest (day/animal) (day 5, Example 2 Treatment group 8: 40 μg/kg·BW/day orally, 5 days): 0 animal | Number of estrous animals at different times after stopping Altrenogest (day/animal) (day 5.5, Example 2 Treatment group 1: 12 μg/kg·BW/day orally, 1 day): 8 animal | Number of estrous animals at different times after stopping Altrenogest (day/animal) (day 5.5, Example 2 Treatment group 2: 12 μg/kg·BW/day orally, 2 days): 9 animal | Number of estrous animals at different times after stopping Altrenogest (day/animal) (day 5.5, Example 2 Treatment group 3: 20 μg/kg·BW/day orally, 1 day): 7 animal | Number of estrous animals at different times after stopping Altrenogest (day/animal) (day 5.5, Example 2 Treatment group 4: 20 μg/kg·BW/day orally, 2 days): 8 animal
